Data on two sequences can be found in patent EP0400227A1, “Natriuretic peptides” (Acticor, Inc., priority 1989, dated 1990).

For this test, the system named is rats. The test can be described thus: Natriuretic and diuretic effect of intravenous bolus injection in anesthetized rats. It is filed as in vivo, male Sprague-Dawley or Long-Evans rats. Conditions: 30 to 60 minutes after minus 30 to 0 minutes before injection, mean ± SEM. How it is done: Diuretic and natriuretic activity of the peptides of this invention is assayed in male rats of the Sprague-Dawley or Long-Evans strains. Peptide or vehicle (for control purposes) is administered by intravenous bolus injection or by continuous infusion into one […] of animals anesthetized for the duration of the experiment, or by intramuscular or subcutaneous injection into animals only briefly anesthetized with ether and subsequently conscious and freely moving until completion of the experiment. Timed urine samples are collected for determination of volume and measurement of sodium and potassium concentration by flame photometry. Details of each method are given in Examples II to IV below.
The natriuretic and diuretic effect of intravenous bolus injection of peptides F15R, G13R and E19R was tested in male Sprague-Dawley or Long-Evans rats weighing 300-400 g. The animals were given Inactin®, 120 mg per kg body weight i.p. under light ether anesthesia. Following placement of a tracheal cannula, the right femoral vein was catheterized for infusion of 5% bovine serum albumin at a dose of 0.4% of body weight and at a rate of 6.0 ml/hour. Subsequently, normal saline was infused for the duration of the experiment at a rate of 2.0 ml/hour. The bladder was exposed through an abdominal incision and catheterized for urine collection. Serial 15-minute urine collections in preweighed vials were begun after a recovery period of 45 minutes. After collection of four control samples, the peptide in 0.1 ml of vehicle was injected into the femoral vein over a period of 1 minute and 6 to 10 further urine samples were collected. Urine volume was determined by weighing and urine sodium and potassium were assayed by flame photometry. All peptides produced natriuresis and diuresis reaching peak levels usually between 30 and 60 minutes after injection. The difference between urine volume and sodium excretion observed from 30 to 60 minutes after and 30 to 0 minutes before peptide administration was calculated for each rat as a measure of activity.

[1] abbreviates: i.v. 0.100 nmol (0.10 nmol for G13R).

Ends that are not written are not given here.

On to GNGDEQPLTPNPR [G13R], for which, under setting [1], the “Change in Sodium Excretion” value is given as 8.39 ± 4.41 µeq/30 minutes and the “Change in Urine Volume” value worked out at 80.0 ± 29.2 µl/30 minutes. In addition, for the setting “i.v. 1.00 nmol”, the “Change in Sodium Excretion” value is 12.48 ± 6.22 µeq/30 minutes and the “Change in Urine Volume” value is listed as 62.0 ± 17.2 µl/30 minutes.
In the case of ETPMFPGNGDEQPLTENP [E19R], for the setting “i.v. 0.025 nmol”, the “Change in Sodium Excretion” value is reported as 6.50 ± 3.60 µeq/30 minutes and the “Change in Urine Volume” value is recorded as 89.0 ± 43.6 µl/30 minutes. Under setting [1], the “Change in Sodium Excretion” value was 12.07 ± 5.08 µeq/30 minutes and the “Change in Urine Volume” value was found to be 104.2 ± 58.0 µl/30 minutes.
